Laboratory results published in patent US11926616B2, “Aminopyrazine diol compounds as PI3K-γ inhibitors” (Incyte Corporation, priority 2018, dated 2024).
pIC50: −log10 of the molar value. Read-outs that look alike come from different tables or passages of the source.

Experiments:
[1] = molecular target: PI3Kγ (p110γ) Recombinant Human Protein (Homo sapiens (Human), UniProt P48736); test: PI3K-γ Scintillation Proximity Assay; assay type: biochemical; settings: 20 μM PIP2, 2 μM ATP, 13 nM PI3Kγ, 120 min, room temperature
Description: Example B. PI3K-γ Scintillation Proximity Assay Materials: [γ-^33P]ATP (10 mCi/mL) and Wheat Germ Agglutinin (WGA) YSi SPA Scintillation Beads was purchased from Perkin Elmer (Waltham, MA). Lipid kinase substrate, D-myo-Phosphatidylinositol 4,5-bisphosphate (PtdIns(4,5)P2)D (+)-sn-1,2-di-O-octanoylglyceryl, 3-O-phospho linked (PIP2), CAS 204858-53-7, was purchased from Echelon Biosciences (Salt Lake City, UT). PI3Kγ (p110γ) Recombinant Human Protein was purchased from Life technology (Grand Island, NY). ATP, MgCl2, DTT, EDTA, MOPS and CHAPS were purchased from Sigma Aldrich (St. Louis, MO). The kinase reaction was conducted in polystyrene 384-well Greiner Bio-one white plate from Thermo Fisher Scientific in a final volume of 25 μL. Inhibitors were first diluted serially in DMSO and added to the plate wells before the addition of other reaction components. The final concentration of DMSO in the assay was 2%. The PI3Kγ assay was carried out at room temperature in 20 mM MOPS, pH 6.7, 10 mM MgCl2, 5 mM DTT and CHAPS 0.03%. Reactions were initiated by the addition of ATP, the final reaction mixture consisted of 20 μM PIP2, 2 μM ATP, 0.5 μCi [γ-^33P] ATP, 13 nM PI3Kγ. Reactions were incubated for 120 min and terminated by the addition of 40 μL SPA beads suspended in quench buffer: 163 mM potassium phosphate pH 7.8, 20% glycerol, 25 mM EDTA. The final concentration of SPA beads is 1.0 mg/mL. After the plate sealing, plates were shaken overnight at room temperature and centrifuged at 1500 rpm for 10 min, the radioactivity of the product was determined by scintillation counting on Topcount (Perkin-Elmer). IC50 determination was performed by fitting the curve of percent of the solvent control activity versus the log of the inhibitor concentration using the GraphPad Prism 6.0 software.

[2] = molecular target: PI3Kδ (p110δ/p85α) Recombinant Human Protein (Homo sapiens (Human), UniProt O00329); test: PI3Kδ Scintillation Proximity Assay; assay type: biochemical; settings: 20 μM PIP2, 2 μM ATP, 3.4 nM PI3Kδ, 120 min, room temperature
Description: Example C. PI3Kδ Scintillation Proximity Assay Materials: [γ-^33P]ATP (10 mCi/mL) and Wheat Germ Agglutinin (WGA) YSi SPA Scintillation Beads was purchased from Perkin Elmer (Waltham, MA). Lipid kinase substrate, D-myo-Phosphatidylinositol 4,5-bisphosphate (PtdIns(4,5)P2)D (+)-sn-1,2-di-O-octanoylglyceryl, 3-O-phospho linked (PIP2), CAS 204858-53-7, was purchased from Echelon Biosciences (Salt Lake City, UT). PI3Kδ (p110δ/p85α) Recombinant Human Protein was purchased from Eurofins (St Charles, MO). ATP, MgCl2, DTT, EDTA, MOPS and CHAPS were purchased from Sigma Aldrich (St. Louis, MO). The kinase reaction was conducted in polystyrene 384-well Greiner Bio-one white plate from Thermo Fisher Scientific in a final volume of 25 μL. Inhibitors were first diluted serially in DMSO and added to the plate wells before the addition of other reaction components. The final concentration of DMSO in the assay was 2%. The PI3Kδ assay was carried out at room temperature in 20 mM MOPS, pH 6.7, 10 mM MgCl2, 5 mM DTT and CHAPS 0.03%. Reactions were initiated by the addition of ATP, the final reaction mixture consisted of 20 μM PIP2, 2 μM ATP, […] [γ-^33P] ATP, 3.4 nM PI3Kδ. Reactions were incubated for 120 min and terminated by the addition of 40 μL SPA beads suspended in quench buffer: 163 mM potassium phosphate pH 7.8, 20% glycerol, 25 mM EDTA. The final concentration of SPA beads is 1.0 mg/mL. After the plate sealing, plates were shaken overnight at room temperature and centrifuged at 1500 rpm for 10 min, the radioactivity of the product was determined by scintillation counting on Topcount (PerkinElmer). IC50 determination was performed by fitting the curve of percent of the solvent control activity versus the log of the inhibitor concentration using the GraphPad Prism 6.0 software.

[3] = system: Phosphorylated Ribosomal Protein S6 (RPS6) in THP-1 cells; test: THP-1 RPS6 ELISA Assay; assay type: cell-based, Human; settings: Homo sapiens; for pIC50: THP-1 cells, serum starved, 2 hours compound, 10 nM MCP-1 for 15 minutes, Phospho-RPS6 ELISA, read-out: PI3Kγ_THP1_RPS6_ELISA IC50
Method: Example A. THP-1 RPS6 ELISA Assay
To measure the Phosphorylated Ribosomal Protein S6 (RPS6) in cell lysates, THP-1 cells (Human Acute Monocytic Leukemia) are purchased from ATCC (Manassas, VA) and maintained in RPMI with 10% FBS (Gibco/Life Technologies, Carlsbad, CA). For the assay, THP-1 cells are serum starved overnight in RPMI, then plated in RPMI (2×10^5 cells/well in 90 μL) into 96-well flat-bottom tissue culture treated plates (Corning, Corning, NY), in the presence or absence of a concentration range of test compounds. Covered plates are incubated for 2 hours at 37° C., 5% CO2 then treated with or without 10 nM MCP-1(MYBioSource, San Diego, CA) for 15 minutes at 37° C., 5% CO2. Plates are centrifuged at 1600 RPM and supernatants are removed. Cells are lysed in Lysis Buffer (Cell Signaling, Danvers, MA) with Protease Inhibitor (Calbiochem/EMD, Germany), PMSF (Sigma, St Louis MO), HALTS (Thermo Fisher, Rockford, IL) for 30 min on wet ice. Cell lysates are frozen at −80° C. before testing. The lysates are tested in the Human/Mouse/Rat Phospho-RPS6 ELISA (R&D Systems, Inc. Minn, MN). The plate is measured using a microplate reader (SpectraMax M5—Molecular Devices, LLC Sunnyvale, CA) set to 450 nm with a wavelength correction of 540. IC50 determination is performed by fitting the curve of inhibitor percent inhibition versus the log of the inhibitor concentration using the GraphPad Prism 5.0 software.

Sequence of PI3Kγ (p110γ) Recombinant Human Protein (P48736 whole entry): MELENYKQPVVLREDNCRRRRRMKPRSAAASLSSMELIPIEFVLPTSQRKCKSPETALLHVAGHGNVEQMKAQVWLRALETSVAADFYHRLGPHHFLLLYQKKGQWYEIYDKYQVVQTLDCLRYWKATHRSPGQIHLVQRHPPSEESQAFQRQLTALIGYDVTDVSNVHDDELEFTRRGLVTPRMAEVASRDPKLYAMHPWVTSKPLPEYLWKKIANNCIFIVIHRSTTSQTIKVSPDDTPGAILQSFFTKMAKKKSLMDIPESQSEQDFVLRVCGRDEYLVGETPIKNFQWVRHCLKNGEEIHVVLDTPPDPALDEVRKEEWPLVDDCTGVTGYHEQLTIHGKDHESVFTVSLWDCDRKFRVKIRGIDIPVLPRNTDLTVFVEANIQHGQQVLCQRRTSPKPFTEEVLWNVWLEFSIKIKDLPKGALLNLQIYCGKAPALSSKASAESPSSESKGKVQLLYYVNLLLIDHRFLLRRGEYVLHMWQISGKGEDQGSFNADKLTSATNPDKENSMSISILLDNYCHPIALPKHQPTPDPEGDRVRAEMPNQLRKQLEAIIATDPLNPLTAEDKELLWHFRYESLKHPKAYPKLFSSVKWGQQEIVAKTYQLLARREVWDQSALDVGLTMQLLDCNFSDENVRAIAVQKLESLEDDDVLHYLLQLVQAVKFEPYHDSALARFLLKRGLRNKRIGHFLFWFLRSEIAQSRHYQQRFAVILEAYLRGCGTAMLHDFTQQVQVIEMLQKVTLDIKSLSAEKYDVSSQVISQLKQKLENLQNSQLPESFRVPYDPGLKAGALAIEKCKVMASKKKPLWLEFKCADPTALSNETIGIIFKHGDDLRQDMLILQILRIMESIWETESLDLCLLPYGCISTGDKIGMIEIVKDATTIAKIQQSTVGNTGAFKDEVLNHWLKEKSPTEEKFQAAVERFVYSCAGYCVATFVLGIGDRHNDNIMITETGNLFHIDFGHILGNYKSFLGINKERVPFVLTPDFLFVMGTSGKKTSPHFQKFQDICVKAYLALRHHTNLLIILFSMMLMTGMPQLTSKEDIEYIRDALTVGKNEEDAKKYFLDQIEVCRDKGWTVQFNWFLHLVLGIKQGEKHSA
Sequence of PI3Kδ (p110δ/p85α) Recombinant Human Protein (O00329 whole entry): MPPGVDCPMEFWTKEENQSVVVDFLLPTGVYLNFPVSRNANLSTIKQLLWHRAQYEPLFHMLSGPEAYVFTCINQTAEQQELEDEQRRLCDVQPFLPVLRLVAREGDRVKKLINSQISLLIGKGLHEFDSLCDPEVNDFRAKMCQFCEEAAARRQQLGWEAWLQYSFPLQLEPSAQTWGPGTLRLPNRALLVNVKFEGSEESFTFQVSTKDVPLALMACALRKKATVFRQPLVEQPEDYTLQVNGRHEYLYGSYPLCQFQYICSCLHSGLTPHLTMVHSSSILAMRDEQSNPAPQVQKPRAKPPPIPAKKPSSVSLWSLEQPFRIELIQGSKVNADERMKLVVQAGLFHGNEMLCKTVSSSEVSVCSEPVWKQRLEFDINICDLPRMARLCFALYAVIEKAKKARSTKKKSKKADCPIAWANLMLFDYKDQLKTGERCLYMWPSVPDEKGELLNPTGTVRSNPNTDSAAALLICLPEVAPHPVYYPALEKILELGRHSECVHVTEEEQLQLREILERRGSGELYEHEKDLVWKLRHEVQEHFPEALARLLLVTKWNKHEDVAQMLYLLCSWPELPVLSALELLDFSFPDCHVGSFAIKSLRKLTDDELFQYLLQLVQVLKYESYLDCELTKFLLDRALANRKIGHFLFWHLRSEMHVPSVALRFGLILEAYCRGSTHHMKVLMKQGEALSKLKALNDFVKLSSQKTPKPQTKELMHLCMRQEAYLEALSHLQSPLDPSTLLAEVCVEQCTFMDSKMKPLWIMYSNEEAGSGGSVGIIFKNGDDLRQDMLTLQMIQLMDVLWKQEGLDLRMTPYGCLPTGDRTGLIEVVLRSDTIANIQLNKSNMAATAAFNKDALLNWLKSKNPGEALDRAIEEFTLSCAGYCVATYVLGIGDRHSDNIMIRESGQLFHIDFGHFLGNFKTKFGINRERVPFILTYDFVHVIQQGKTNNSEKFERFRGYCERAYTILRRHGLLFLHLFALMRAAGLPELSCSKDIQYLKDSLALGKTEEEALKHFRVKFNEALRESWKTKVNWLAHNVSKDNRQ
Sequence of PI3Kδ (p110δ/p85α) Recombinant Human Protein (P27986 whole entry partner): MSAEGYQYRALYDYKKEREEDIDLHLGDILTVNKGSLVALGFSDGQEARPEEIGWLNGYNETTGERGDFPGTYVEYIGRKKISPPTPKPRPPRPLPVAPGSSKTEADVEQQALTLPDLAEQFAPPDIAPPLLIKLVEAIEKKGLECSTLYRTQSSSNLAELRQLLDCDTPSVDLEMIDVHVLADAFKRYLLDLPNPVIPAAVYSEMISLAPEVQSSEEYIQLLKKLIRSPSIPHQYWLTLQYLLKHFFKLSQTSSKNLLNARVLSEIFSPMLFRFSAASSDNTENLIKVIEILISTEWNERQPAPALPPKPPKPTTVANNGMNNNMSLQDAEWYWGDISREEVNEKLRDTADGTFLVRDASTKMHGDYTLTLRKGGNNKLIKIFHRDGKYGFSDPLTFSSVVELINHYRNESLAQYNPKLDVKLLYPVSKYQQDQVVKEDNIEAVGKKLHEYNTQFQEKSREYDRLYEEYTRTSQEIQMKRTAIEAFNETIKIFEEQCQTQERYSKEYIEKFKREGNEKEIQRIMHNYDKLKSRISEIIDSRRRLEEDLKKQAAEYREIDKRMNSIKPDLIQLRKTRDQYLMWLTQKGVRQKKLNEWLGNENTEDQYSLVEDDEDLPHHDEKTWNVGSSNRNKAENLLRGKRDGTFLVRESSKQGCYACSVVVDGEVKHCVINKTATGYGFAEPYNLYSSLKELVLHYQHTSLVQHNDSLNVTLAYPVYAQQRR

| Structure (SMILES) | pIC50 [1] | pIC50 [2] | pIC50 [3] | further results |
| --- | --- | --- | --- | --- |
| [2H]C([2H])([2H])n1nccc1-c1nc(-c2cc(C(O)(CO)C(F)(F)F)ccc2C)cnc1N (single isomer, unassigned) [Example 1b, 2-(3-(5-Amino-6-(1-(methyl-d3)-1H-pyrazol-5-yl)pyrazin-2-yl)-4-methylphenyl)-3,3,3-trifluoropropane-1,2-diol] | ≥ 6.30 | ≥ 6.30 | – | – |
| Cc1ccc(C(O)(CO)C(F)(F)F)cc1-c1cnc(N)c(-c2cnn(C)c2)n1 (single isomer, unassigned) [Example 2, 2-(3-(5-Amino-6-(1-methyl-1H-pyrazol-4-yl)pyrazin-2-yl)-4-methylphenyl)-3,3,3-trifluoropropane-1,2-diol] | – | – | > 7.00 | – |
| Cc1ccc(C(O)(CO)C(F)(F)F)cc1-c1cnc(N)c(-c2cn[nH]c2)n1 (single isomer, unassigned) [Example 3, 2-(3-(5-Amino-6-(1H-pyrazol-4-yl)pyrazin-2-yl)-4-methylphenyl)-3,3,3-trifluoropropane-1,2-diol] | – | – | > 7.00 | – |
| Cc1cc(-c2nc(-c3cc(C(O)(CO)C(F)(F)F)ccc3C)cnc2N)on1 (single isomer, unassigned) [Example 4, 2-(3-(5-Amino-6-(3-methylisoxazol-5-yl)pyrazin-2-yl)-4-methylphenyl)-3,3,3-trifluoropropane-1,2-diol] | – | – | > 7.00 | – |
| Cc1ccc(C(O)(CO)C(F)(F)F)cc1-c1cnc(N)c(-c2cnsc2)n1 (single isomer, unassigned) [Example 5, 2-(3-(5-Amino-6-(isothiazol-4-yl)pyrazin-2-yl)-4-methylphenyl)-3,3,3-trifluoropropane-1,2-diol] | – | – | > 7.00 | – |
| Cc1ccc(C(O)(CO)C(F)(F)F)cc1-c1cnc(N)c(-c2ccns2)n1 (single isomer, unassigned) [Example 6, 2-(3-(5-Amino-6-(isothiazol-5-yl)pyrazin-2-yl)-4-methylphenyl)-3,3,3-trifluoropropane-1,2-diol] | – | – | > 7.00 | – |
| Cc1cc(-c2nc(-c3cc(C(O)(CO)C(F)(F)F)ccc3C)cnc2N)sn1 (single isomer, unassigned) [Example 7, 2-(3-(5-amino-6-(3-methylisothiazol-5-yl)pyrazin-2-yl)-4-methylphenyl)-3,3,3-trifluoropropane-1,2-diol] | – | – | > 7.00 | – |
| Cc1ncc(-c2nc(-c3cc(C(O)(CO)C(F)(F)F)ccc3C)cnc2N)s1 (single isomer, unassigned) [Example 10, 2-(3-(5-Amino-6-(2-methylthiazol-5-yl)pyrazin-2-yl)-4-methvlphenyl)-3,3,3-trifluoropropane-1,2-diol] | – | – | > 7.00 | – |
| Cc1ccc(C(O)(CO)C(F)(F)F)cc1-c1cnc(N)c(-c2cnco2)n1 (single isomer, unassigned) [Example 11, 2-(3-(5-Amino-6-(oxazol-5-yl)pyrazin-2-yl)-4-methylphenyl)-3,3,3-trifluoropropane-1,2-diol] | – | – | > 7.00 | – |
| Cc1ccc(C(O)(CO)C(F)(F)F)cc1-c1cnc(N)c(-n2ccnn2)n1 (single isomer, unassigned) [Example 13, 2-(3-(5-Amino-6-(1H-1,2,3-triazol-1-yl)pyrazin-2-yl)-4-methylphenyl)-3,3,3-trifluoropropane-1,2-diol] | – | – | > 7.00 | – |
| Cc1ccc(C(O)(CO)C(F)(F)F)cc1-c1cnc(N)c(-n2cncn2)n1 (single isomer, unassigned) [Example 15, 2-(3-(5-Amino-6-(1H-1,2,4-triazol-1-yl)pyrazin-2-yl)-4-methylphenyl)-3,3,3-trifluoropropane-1,2-diol] | – | – | > 6.30 | – |
| Cc1ccc(C(O)(CO)C(F)(F)F)cc1-c1cnc(N)c(C(F)(F)F)n1 (single isomer, unassigned) [Example 25, 2-(3-(5-Amino-6-(trifluoromethyl)pyrazin-2-yl)-4-methylphenyl)-3,3,3-trifluoropropane-1,2-diol] | ≥ 7.00 | ≥ 6.30 | – | – |
| Cc1ccc(C(O)(CO)C(F)(F)F)cc1-c1cnc(N)c(C(=O)NC23CC(CO)(C2)C3)n1 (single isomer, unassigned) [Example 32] | ≥ 7.00 | ≥ 7.00 | – | – |
| [2H]C([2H])([2H])c1ccc(C(O)(CO)C(F)(F)F)cc1-c1cnc(N)c(C(=O)NC23CC(CO)(C2)C3)n1 (single isomer, unassigned) [Example 32] | – | – | > 7.00 | – |
| Cc1ccc(C(O)(CO)C(F)(F)F)cc1-c1cnc(N)c(C(=O)N[C@@H](C)CO)n1 (single isomer, unassigned) [Example 33] | ≥ 7.00 | ≥ 7.00 | – | – |
| [2H]C([2H])([2H])c1ccc(C(O)(CO)C(F)(F)F)cc1-c1cnc(N)c(C(=O)N[C@@H](C)CO)n1 (single isomer, unassigned) [Example 33] | – | – | > 7.00 | – |
| Cc1ccc(C(O)(CO)C(F)(F)F)cc1-c1cnc(N)c(C(=O)NCC(C)(C)C#N)n1 (single isomer, unassigned) [Example 34] | ≥ 7.00 | ≥ 7.00 | – | – |
| [2H]C([2H])([2H])c1ccc(C(O)(CO)C(F)(F)F)cc1-c1cnc(N)c(C(=O)NCC(C)(C)C#N)n1 (single isomer, unassigned) [Example 34] | – | – | > 7.00 | – |
| Cc1ccc(C(O)(CO)C(F)(F)F)cc1-c1cnc(N)c(C(=O)NC23CCC(O)(CC2)C3)n1 (single isomer, unassigned) [Example 35] | ≥ 7.00 | ≥ 7.00 | – | – |
| [2H]C([2H])([2H])c1ccc(C(O)(CO)C(F)(F)F)cc1-c1cnc(N)c(C(=O)NC23CCC(O)(CC2)C3)n1 (single isomer, unassigned) [Example 35] | – | – | > 7.00 | – |
| Cc1ccc(C(O)(CO)C(F)(F)F)cc1-c1cnc(N)c(C(=O)N[C@H](C)CO)n1 (single isomer, unassigned) [Example 36] | ≥ 7.00 | ≥ 7.00 | – | – |
| [2H]C([2H])([2H])c1ccc(C(O)(CO)C(F)(F)F)cc1-c1cnc(N)c(C(=O)N[C@H](C)CO)n1 (single isomer, unassigned) [Example 36] | – | – | > 6.30 | – |
| Cc1ccc([C@](O)(CO)C(F)F)cc1-c1cnc(N)c(C(=O)NC(C)C)n1 (single isomer, unassigned) [Example 46] | – | – | – | IC50 ([3]; THP-1, read-out: PI3Kγ_THP1_RPS6_ELISA IC50 (nM)): < 100 nM |
